The text below walks through data of patent US12043632B2, “6-heteroaryloxy benzimidazoles and azabenzimidazoles as JAK2 inhibitors” (Ajax Therapeutics, Inc., priority 2020, dated 2024).

Bounds are passed on as bounds.

This test has as its target T1, JAK2 (JH1domain-catalytic, Y1007F,Y1008F) kinase (Homo sapiens, UniProt O60674, Y1007F/Y1008F).
T1 construct: JAK2 (JH1domain-catalytic, Y1007F,Y1008F) kinase was expressed as N-terminal fusion; made in house; host or cells: transiently transfected HEK293 cells
The experiment in a line: JAK2 JH1 Domain Binding Assay. The conditions noted are these: qPCR readout.

T1 sequence (O60674 849-1124 Y1007F/Y1008F limits assumed): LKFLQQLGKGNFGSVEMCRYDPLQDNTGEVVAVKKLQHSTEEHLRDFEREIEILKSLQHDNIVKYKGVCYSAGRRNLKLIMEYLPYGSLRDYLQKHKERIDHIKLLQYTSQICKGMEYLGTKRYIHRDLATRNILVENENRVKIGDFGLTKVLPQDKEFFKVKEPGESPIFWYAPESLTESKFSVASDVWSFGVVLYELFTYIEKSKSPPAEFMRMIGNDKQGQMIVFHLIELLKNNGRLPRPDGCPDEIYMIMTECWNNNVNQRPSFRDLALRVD

`CNc1nccn2ncc(Oc3cnc4nc(Nc5cc(C(C)(C)C)n([C@H]6CCN(C)C6)n5)n(C)c4c3Cl)c12` [Example I-251, (S)—N-(5-(tert-butyl)-1-(1-methylpyrrolidin-3-yl)-1H-pyrazol-3-yl)-7-chloro-1-methyl-6-((4-(methylamino)pyrazolo[1,5-a]pyrazin-3-yl)oxy)-1H-imidazo[4,5-b]pyridin-2-amine]: the Kd is < 10 nM.
Next, `CNc1cn2ncc(Oc3cnc4nc(Nc5cc(C(F)(F)F)cn(C6CC6)c5=O)n(C)c4c3Cl)c2cn1` [Example I-321, 3-((7-chloro-1-methyl-6-((6-(methylamino)pyrazolo[1,5-a]pyrazin-3-yl)oxy)-1H-imidazo[4,5-b]pyridin-2-yl)amino)-1-cyclopropyl-5-(trifluoromethyl)pyridin-2(1H)-one]: < 10 nM; `Cn1c(Nc2cc(C(C)(C)C)n([C@H]3C[C@H](O)C3)n2)nc2ncc(Oc3cnn4ccncc34)c(C#N)c21` [Example I-158, trans-2-((5-(tert-butyl)-1-(3-hydroxycyclobutyl)-1H-pyrazol-3-yl)amino)-1-methyl-6-(pyrazolo[1,5-a]pyrazin-3-yloxy)-1H-imidazo[4,5-b]pyridine-7-carbonitrile]: < 10 nM; `Cn1c(Nc2cc(C(C)(C)C)n(C3CC4(COC4)C3)n2)nc2ncc(Oc3cnn4ccncc34)c(C#N)c21` [Example I-187, 2-((5-(tert-butyl)-1-(2-oxaspiro[3.3]heptan-6-yl)-1H-pyrazol-3-yl)amino)-1-methyl-6-(pyrazolo[1,5-a]pyrazin-3-yloxy)-1H-imidazo[4,5-b]pyridine-7-carbonitrile]: 10 to 50 nM.
As to `Cc1cc2cc(Oc3cnc4nc(Nc5cc(C(F)(F)F)cn(C)c5=O)n(C)c4c3C#N)cnc2[nH]1` [Example I-290, 1-methyl-6-((2-methyl-1H-pyrrolo[2,3-b]pyridin-5-yl)oxy)-2-((1-methyl-2-oxo-5-(trifluoromethyl)-1,2-dihydropyridin-3-yl)amino)-1H-imidazo[4,5-b]pyridine-7-carbonitrile], the Kd lay in the range of 10 to 50 nM.
As for `Cn1c(Nc2cc(C3CC3)nn([C@H]3CCCOC3)c2=O)nc2ncc(Oc3cnn4ccccc34)c(Cl)c21` (single isomer, unassigned) [Example I-148-b], the figure is 10 to 50 nM.
With `Cn1nc(C2CC2)cc(Nc2nc3ncc(Oc4cnn5ccccc45)c(Cl)c3n2C)c1=O` [Example I-116, 4-((7-chloro-1-methyl-6-(pyrazolo[1,5-a]pyridin-3-yloxy)-1H-imidazo[4,5-b]pyridin-2-yl)amino)-6-cyclopropyl-2-methylpyridazin-3(2H)-one], the equilibrium dissociation constant (Kd) was < 10 nM.
With `CO[C@@H]1CCN(Cc2cc(Nc3nc4ncc(Oc5cnn6ccncc56)c(Cl)c4n3C)cc(C(F)(F)F)c2)C1` [Example I-182, (R)-7-chloro-N-(3-((3-methoxypyrrolidin-1-yl)methyl)-5-(trifluoromethyl)phenyl)-1-methyl-6-(pyrazolo[1,5-a]pyrazin-3-yloxy)-1H-imidazo[4,5-b]pyridin-2-amine], the dissociation constant (Kd) is < 10 nM.
As for `Cn1c(Nc2cc(C(F)(F)F)cn([C@H]3C[C@@H](O)C3)c2=O)nc2ncc(Oc3cnn4ccc(F)cc34)c(Cl)c21` [Example I-213, cis-3-((7-chloro-6-((5-fluoropyrazolo[1,5-a]pyridin-3-yl)oxy)-1-methyl-1H-imidazo[4,5-b]pyridin-2-yl)amino)-1-(3-hydroxycyclobutyl)-5-(trifluoromethyl)pyridin-2(1H)-one], the figure is 10 to 50 nM; as for `Cn1c(Nc2cc(C3CC3)cn(CC#N)c2=O)nc2ncc(Oc3cnn4ccncc34)c(Cl)c21` [Example I-132, 2-(3-((7-chloro-1-methyl-6-(pyrazolo[1,5-a]pyrazin-3-yloxy)-1H-imidazo[4,5-b]pyridin-2-yl)amino)-5-cyclopropyl-2-oxopyridin-1(2H)-yl)acetonitrile], < 10 nM; as for `Cn1c(Nc2cc(C(C)(C)C)n([C@H]3CCO[C@@H]3CO)n2)nc2ncc(Oc3cnc4ccnn4c3)c(Cl)c21` [Example I-82, ((2S,3S)-3-(5-(tert-butyl)-3-((7-chloro-1-methyl-6-(pyrazolo[1,5-a]pyrimidin-6-yloxy)-1H-imidazo[4,5-b]pyridin-2-yl)amino)-1H-pyrazol-1-yl)tetrahydrofuran-2-yl)methanol], 10 to 50 nM.
As for `Cn1c(Nc2cc(C3CC3)cn([C@H]3CC[C@H]3O)c2=O)nc2ncc(Oc3cnn4ccncc34)c(Cl)c21` (single isomer, unassigned) [Example I-98-b], the figure is < 10 nM; as for `CNc1cn2ncc(Oc3cnc4nc(Nc5cc(C(C)(C)C)n([C@H]6CCN(C)C6)n5)n(C)c4c3Cl)c2cn1` [Example I-346, (S)—N-(5-(tert-butyl)-1-(1-methylpyrrolidin-3-yl)-1H-pyrazol-3-yl)-7-chloro-1-methyl-6-((6-(methylamino)pyrazolo[1,5-a]pyrazin-3-yl)oxy)-1H-imidazo[4,5-b]pyridin-2-amine], 10 to 50 nM.
Next, `CNc1nccn2ncc(Oc3cnc4nc(Nc5ccc(CN6CC(OC)C6)c(C(F)(F)F)c5)n(C)c4c3Cl)c12` [Example I-190, 7-chloro-N-(4-((3-methoxyazetidin-1-yl)methyl)-3-(trifluoromethyl)phenyl)-1-methyl-6-((4-(methylamino)pyrazolo[1,5-a]pyrazin-3-yl)oxy)-1H-imidazo[4,5-b]pyridin-2-amine]: 10 to 50 nM; `Cn1cc(C(F)(F)F)cc(Nc2nc3ncc(Oc4cnc5[nH]cc(F)c5c4)c(C#N)c3n2C)c1=O` [Example I-289, 6-((3-fluoro-1H-pyrrolo[2,3-b]pyridin-5-yl)oxy)-1-methyl-2-((1-methyl-2-oxo-5-(trifluoromethyl)-1,2-dihydropyridin-3-yl)amino)-1H-imidazo[4,5-b]pyridine-7-carbonitrile]: 10 to 50 nM; `Cn1c(Nc2cc(C3CC3)cn([C@@H]3CC[C@@H]3O)c2=O)nc2ncc(Oc3cnn4ccccc34)c(Cl)c21` (single isomer, unassigned) [Example I-114-a]: < 10 nM.
Take `COc1c(Oc2cnn3ccncc23)cnc2nc(Nc3cc(C4CC4)cn([C@H](C)CC#N)c3=O)n(C)c12` (single isomer, unassigned) [Example I-121-b]: the Kd was < 10 nM.
Next, `Cn1c(Nc2cc(C(F)(F)F)cn(-c3cccnc3)c2=O)nc2ncc(Oc3cnn4ccncc34)c(Cl)c21` [Example I-109, 3-((7-chloro-1-methyl-6-(pyrazolo[1,5-a]pyrazin-3-yloxy)-1H-imidazo[4,5-b]pyridin-2-yl)amino)-5-(trifluoromethyl)-2H-[1,3′-bipyridin]-2-one]: < 10 nM; `CNc1cn2ncc(Oc3cnc4nc(Nc5cc(OC[C@@H]6CCCN6C)cc(C(F)(F)F)c5)n(C)c4c3Cl)c2cn1` [Example I-331, (S)-7-chloro-1-methyl-6-((6-(methylamino)pyrazolo[1,5-a]pyrazin-3-yl)oxy)-N-(3-((1-methylpyrrolidin-2-yl)methoxy)-5-(trifluoromethyl)phenyl)-1H-imidazo[4,5-b]pyridin-2-amine]: < 10 nM.
Next, `CNc1nccn2ncc(Oc3cnc4nc(Nc5cc(CN6CC(OC)C6)cc(C(F)(F)F)c5)n(C)c4c3Cl)c12` [Example I-247, 7-chloro-N-(3-((3-methoxyazetidin-1-yl)methyl)-5-(trifluoromethyl)phenyl)-1-methyl-6-((4-(methylamino)pyrazolo[1,5-a]pyrazin-3-yl)oxy)-1H-imidazo[4,5-b]pyridin-2-amine]: 10 to 50 nM; `Cn1c(Nc2cc(CN3CCOCC3)cc(C(F)(F)F)c2)nc2ncc(Oc3cnn4ccncc34)c(Cl)c21` [Example I-194, 7-chloro-1-methyl-N-(3-(morpholinomethyl)-5-(trifluoromethyl)phenyl)-6-(pyrazolo[1,5-a]pyrazin-3-yloxy)-1H-imidazo[4,5-b]pyridin-2-amine]: < 10 nM; `Cn1cc(C(F)(F)F)cc(Nc2nc3ncc(Oc4cnc5[nH]ncc5c4)c(Cl)c3n2C)c1=O` [Example I-261, 3-((6-((1H-pyrazolo[3,4-b]pyridin-5-yl)oxy)-7-chloro-1-methyl-1H-imidazo[4,5-b]pyridin-2-yl)amino)-1-methyl-5-(trifluoromethyl)pyridin-2(1H)-one]: < 10 nM.
As for `CNc1nccn2ncc(Oc3cnc4nc(Nc5cc(CN(C)C)cc(C(F)(F)F)c5)n(C)c4c3Cl)c12` [Example I-255, 7-chloro-N-(3-((dimethylamino)methyl)-5-(trifluoromethyl)phenyl)-1-methyl-6-((4-(methylamino)pyrazolo[1,5-a]pyrazin-3-yl)oxy)-1H-imidazo[4,5-b]pyridin-2-amine], the figure is < 10 nM.
In the case of `CNc1nccn2ncc(Oc3cnc4nc(Nc5cc(CN6CC[C@@H](N(C)C)C6)cc(C(F)(F)F)c5)n(C)c4c3Cl)c12` [Example I-282, (R)-7-chloro-N-(3-((3-(dimethylamino)pyrrolidin-1-yl)methyl)-5-(trifluoromethyl)phenyl)-1-methyl-6-((4-(methylamino)pyrazolo[1,5-a]pyrazin-3-yl)oxy)-1H-imidazo[4,5-b]pyridin-2-amine], the equilibrium dissociation constant (Kd) lay within 10 to 50 nM.
Turning to `COCCOc1cn2ncc(Oc3cnc4nc(Nc5cc(C6CC6)cn(C)c5=O)n(C)c4c3Cl)c2cn1` [Example I-375, 3-((7-chloro-6-((6-(2-methoxyethoxy)pyrazolo[1,5-a]pyrazin-3-yl)oxy)-1-methyl-1H-imidazo[4,5-b]pyridin-2-yl)amino)-5-cyclopropyl-1-methylpyridin-2(1H)-one], the Kd was < 10 nM.
As for `Cn1cc(-n2cc(C(F)(F)F)cc(Nc3nc4ncc(Oc5cnn6cc(F)ccc56)c(Cl)c4n3C)c2=O)cn1` [Example I-161, 3-((7-chloro-6-((6-fluoropyrazolo[1,5-a]pyridin-3-yl)oxy)-1-methyl-1H-imidazo[4,5-b]pyridin-2-yl)amino)-1-(1-methyl-1H-pyrazol-4-yl)-5-(trifluoromethyl)pyridin-2(1H)-one], the Kd is < 10 nM.
